Laboratory results taken from a melting point compilation (Tetko et al.; mined from patent text by program, amines drawn as free bases though some values may be those of a salt).

| Structure (SMILES) | melting point [°C] |
| --- | --- |
| O=C(Cc1ccccc1)c1ccc(OCc2ccccc2)cc1O | 106 to 108 |
| CC(=O)N(C)c1ccnc2c(NC(=O)c3c(Cl)cccc3Cl)cccc12 | 227 to 230 |
| CCCCCN(CCCOC)C(=O)C(CCC(=O)O)CS(=O)(=O)c1ccc2ccccc2c1 (centres undefined) | 79 to 82 |
| CC1(C)CCC(C)(C)c2cc(-c3cc(-c4ccc(C(N)=O)cc4)ccc3-c3ccccc3)ccc21 | 220 |
| O=C(O)C(Cc1ccccc1)NC(=O)N1CCc2cc(S(=O)(=O)N3CCN(c4cccc(Cl)c4)CC3)ccc21 (centres undefined) | 134 to 135 |
| Nc1c(Cl)cc(C(O)CNCCCCCCOCCc2ccccc2)cc1Cl (centres undefined) | 60 to 63 |
| CCOC(=Cc1ccc(-c2cccc(N(C)C(=O)NCCc3ccccc3)c2)cc1)C(=O)O | 70 |
| CN(Cc1ccccc1)C(=O)c1cnc2c([N+](=O)[O-])cccc2c1Cl | 120 to 121 |
| CN(C(=O)Cl)c1ccc2c(c1)OCO2 | 71 to 73 |
| O=C(c1cc2c(OC[C@@H](O)CN3CCC(c4ccc5ccccc5c4)CC3)cccc2[nH]1)N1CCCC1 | 158 to 161 |
| Nc1cccc(CCC(=O)Nc2ccc(Nc3ccccc3)cc2)c1 | 164 to 166 |
| Cc1ccc2ncn(C3CCC(=O)NC3=O)c(=O)c2c1 (centres undefined) | 285 to 287 |
| COc1ccc(N2CCN(c3ccc(NC(=O)Oc4ccccc4)cn3)CC2)cc1 | 197 to 198 |
| C=CCOc1ccc(C(C)(C)C)cc1C(C(=O)O)c1ccccc1 (centres undefined) | 120 to 122 |
| CC(=O)NC[C@H]1CN(c2ccc(N3CCC(n4nccn4)CC3)c(F)c2)C(=O)O1 | 197 |
| COc1ccnc(CO)c1Cl | 103 to 105 |
| Cc1cc(C(=O)NCc2cccc3c2C(=O)N(C2CCC(=O)NC2=O)C3=O)nn1C (centres undefined) | 213 to 215 |
| CCOC(=O)CCc1cc(-c2ccccc2)nn1Cc1ccc(Cl)cc1Cl | 91 to 93 |
| NC(=O)N(O)CCNC(=O)c1cc2c(Cl)cccc2s1 | 181 to 184 |
| COc1ccc(-c2cccc3c2COC3=O)c2c1OCCO2 | 158 to 160 |
| Nc1nc2c(s1)CCN(C/C=C\c1cccc3c1CC(=O)N3)CC2 | 192 to 195 |
| Cc1cc(Nc2ccc(F)cc2)nc(Nc2ccc(S(=O)(=O)N(C)C3CCN(Cc4nccs4)CC3)cc2)n1 | 220 |
| COc1ccc(Cc2cc(C3CCN(C(=O)c4ccccc4)CC3)nc(N)n2)cc1 | 170 to 171 |
| CCCCc1ccc(C2(C)OC(=C(C#N)C#N)C(C#N)=C2C)cc1 (centres undefined) | 129 to 130 |
| CCOCCOC(=O)C(=O)Nc1nc(-c2ccc(OC)cc2OC)cs1 | 118 to 120 |

| Structure (SMILES) | melting point [°C] |
| --- | --- |
| O=C1c2cc(O)ccc2CCN1Cc1cccnc1 | 136 to 137 |
| CCN(CC)CCn1nc2c3c(c(NCCNCCO)ccc31)Sc1c(OC)ccc(OC)c1-2 | 119 to 123 |
| CC(=O)OCC1OC(Oc2nc[nH]c2C(N)=O)C(OC(C)=O)C(OC(C)=O)C1OC(C)=O (centres undefined) | 234 to 235 |
| COc1cc(Nc2nccc(Nc3ccc(OCCCO)cc3)n2)cc(OC)c1OC | 69 |
| CSc1nc(O)c(NC(=O)c2ccco2)c(O)n1 | 124 to 125 |
| COc1ccc(C(C#Cc2ccccc2)Cc2nc(C)co2)cc1OC1CCCC1 (racemic) | 56 to 57 |
| CCc1cc(C(=O)c2ccccc2Cl)c(-n2c(C)nnc2CNC(=O)c2ccccc2)s1 | 160 to 161 |
| O=c1nc(N(Cc2ccccc2)c2ccccc2)sc2ncccc12 | 137 to 138 |
| CC(C)(C)OC(=O)c1ncn2c1[C@@H]1CCCN1C(=O)c1cc(F)ccc1-2 | 154 to 155 |
| CCCCCCc1cc2c(s1)NC(=O)CN=C2c1ccccc1OC | 130 to 132 |
| COc1ccc(S(=O)(=O)Nc2ccc(OC)nc2Nc2ccccc2)cc1 | 187 to 188 |
| CC(=O)Cc1nc(CN2CCCCC2)no1 | 66 to 67 |
| CCN(CC)c1ccc(C2(c3c(C)n(CCOc4ccccc4)c4ccccc34)OC(=O)c3ccccc32)c(C)c1 (centres undefined) | 182 to 183 |
| CCCCNC(=O)Cc1ccc2c(c1)c(Cc1ccc(C(=O)NS(=O)(=O)c3ccccc3C)cc1OC)cn2CCC | 100 to 102 |
| O=C(CCc1nc(-c2ccccn2)no1)NC1CCN(Cc2ccc(Cl)c(F)c2)CC1 | 132 |
| CCn1cc(C(=O)O)c(=O)c2cc(F)c(N3CCC(NC(C)=O)C3)nc21 (centres undefined) | 283 to 284 |
| Cn1ccnc1S(=O)c1ccccc1Cl (centres undefined) | 132 to 134 |
| CCOC(=O)c1c(C)nn(-c2cccc(N)c2)c1C | 93 to 95 |
| CC(=O)Nc1ccc2c(c1)CCC(=CN(C)C)C2=O | 207 to 210 |
| CCCN1CC(c2ccc(C)cc2)=C(c2ccc(S(C)(=O)=O)cc2)C1=O | 156 to 158 |
| N#Cc1ccc(OCc2cccnc2)cc1OC(C(=O)O)c1ccccc1 (racemic) | 201 to 202 |
| CC(C)(N)c1ccc(-c2nc(Nc3ccc(CCN4CCOCC4)cc3)ncc2Cl)cc1 | 166 to 173 |
| COC(=O)Cc1ccc(C(=C2CC(C)(C)CC(C)(C)C2)c2ccc(O)cc2)cc1 | 154 to 155 |
| N#Cc1c(I)[nH]c(I)c1I | 257 to 258 |
| O=c1cncc2ccccc2n1 | 213 |

| Structure (SMILES) | melting point [°C] |
| --- | --- |
| O=C(O)CCCCCCCOc1nc(-c2ccccc2)c(-c2ccccc2)n1-c1ccccc1 | 158 to 159 |
| COc1c(N2CC(C)C(C)(N)C2)c(F)cc2c(=O)c(C(=O)O)cn(C3CC3F)c12 (centres undefined) | 195 to 196 |
| CNC(=O)C1=CC(CF)(CF)Oc2ccc(Br)cc21 | 187 to 188 |
| COC(=O)C(C)NC(=O)NCCCCC1CCSS1 (centres undefined) | 72 to 82 |
| CCCCCCCCCCCCCCCC(=O)NCCCSc1ccncc1 | 84 to 85 |
| CS(=O)(=O)c1ccnc(Oc2ccccc2)n1 | 86 to 87 |
| Fc1ccc2sc(CCl)nc2c1 | 99 to 101 |
| COc1ccc(-c2ccccc2)c(NC(=N)N2CCOCC2)c1 | 140 to 142 |
| C[C@H]([C@H](O)c1ccc2c(c1)OC(c1ccccc1)(c1ccccc1)O2)N1CCC(O)(c2ccccc2)CC1 (relative stereo) | 224 |
| CC(C)Cn1c(=O)n(C)c(=O)c2c(SCC(C)O)c(Cc3cccc4ccccc34)sc21 (centres undefined) | 126 to 128 |
| CC(C)CCCC(C)CCOc1cc(CO)c(-c2ccccc2)cc1CO (centres undefined) | 112 to 115 |
| N#CCSc1c[nH]c2ccccc12 | 52 to 54.5 |
| Clc1ccc(Nc2ncc(Sc3ccncc3)c3ccccc23)cc1 | 192 to 195 |
| CCCCc1nc2ccc(C)c(C(=O)O)c2n1Cc1ccc(-c2ccccc2-c2nnn[nH]2)cc1 | 298 to 299 |
| Nc1c(F)c(N2CCC(n3cc(-c4ccccc4)nn3)C2)c(F)c2c1c(=O)c(C(=O)O)cn2C1CC1 (centres undefined) | 265 |
| Cc1cc(Br)cc(C=NO)c1 | 128 to 129 |
| Cn1c(C(=O)C(C)(C)C)cc2cc(OCc3ccccc3)ccc21 | 101 to 103 |
| Cc1ccccc1C(=O)Cc1ccncc1 | 118 to 119 |
| Fc1cccc(-c2cn([C@H]3CN4CCC3CC4)nn2)c1 | 120 |
| CC1(C)OC(=O)C(Oc2cccc(F)c2)=C1c1ccc(S(C)(=O)=O)cc1 | 136 to 138 |
| Cn1ccc(S(=O)(=O)NC(C)(C)C)c1 | 134 to 135 |
| Oc1ccc(Oc2ccc(I)cn2)cc1 | 110 |
| O[C@@H]1CN=C(c2ccc3ccccc3c2)O[C@H]1c1ccccc1 (racemic) | 172 |
| CCOC(=S)c1cccc2nnsc12 | 114 to 115 |
| Cc1cccc(-c2nc3ccc(OCCCN4CCCC4)cc3n2Cc2ccccc2)c1 | 120 |

| Structure (SMILES) | melting point [°C] |
| --- | --- |
| Cc1ccc(OCc2c(F)cccc2Cl)c(NC(=N)Nc2ccc(Cl)cc2)n1 | 148 to 149 |
| CCCCC1CCC2NC(=O)C(=O)C2C1 (centres undefined) | 112 to 113 |
| CCCCOCCOc1ccc(-c2ccc3c(c2)C=C(C(=O)Nc2ccc([C@@H](O)c4ccccn4)cc2)CCN3C=O)cc1 | 110 to 112 |
| COc1cc(Nc2c(C#N)cnc3cc(-c4cccc(CN5CCOCC5)c4)ccc23)c(Cl)cc1Cl | 88 to 91 |
| N#Cc1c(Cc2ccccc2)n[nH]c1N | 183 to 185 |
| Cc1cccc(C2CCN(C(=O)CCC(=O)c3ccc4c(c3)CCN(C(=O)C(F)(F)F)CC4)CC2)c1 | 128 to 129 |
| O=S(Cc1ccccn1)c1ccc(F)cc1 (centres undefined) | 92 to 94 |
| CCCCOc1cc2ncnc(Nc3cccc(CC)c3)c2cc1OCCOC | 90 to 92 |
| CCC[C@@H]1COC(=O)N1c1nc(-c2ccc(Br)cc2)cs1 | 114 to 116 |
| N#CCCCCn1c(=O)sc2c(=O)[nH]c(N)nc21 | 240 to 243 |
| O=C(NC(=O)c1ccc(F)cc1Cl)Nc1ccc(OC(F)(F)C(F)Cl)c(Cl)c1 (centres undefined) | 186 |
| CNC(=O)NCCN1CCC(Nc2nc3ccccc3n2Cc2cnc(C)o2)CC1 | 203 |
| CCCc1ccc(NC(=O)c2ccccc2NCc2ccncc2)cc1C(F)(F)F | 134 to 135 |
| CC(C)c1ccc2nc3ccc(C(=O)NCCc4cccnc4)cn3c(=O)c2c1 | 283 to 292 |
| CSc1cc2c(cc1C(F)(F)F)N(C(=O)Nc1cccc(C(=O)O)c1)CC2 | > 200 |
| CC(C)OC(=O)N(O)CCN1CCCCC1 | 78 to 79 |
| CCCCCOc1c(OC)ccc(C(=O)NCCc2ccc(OCc3ccccc3)cc2)c1CCO | 93.4 to 93.7 |
| FC(F)(F)c1ccc(CCc2cc(OCc3ccccc3)c(OCc3ccccc3)nn2)cc1Cl | 169 to 170 |
| O=C(Cc1c(-c2ccccc2)c2cc(CN3CCN(c4ccccc4)CC3)c(Cl)cc2oc1=O)Nc1ccc(Cl)cc1C(F)(F)F | 201 to 203 |
| CC(Cn1cc(-c2ccccc2)c2ccccc2c1=O)NCc1ccccc1 (centres undefined) | 118 |
| CCOC(=O)c1ncn(S(=O)(=O)N(C)C)n1 | 78.5 to 81.5 |
| CCOC(=O)c1ccc2c(c1)N=C(C)c1ccc(OC)cc1O2 | 117 to 118 |
| OCCCc1ccc(OCc2ccccc2)cc1 | 63 to 64 |
| O=C(Cc1cccs1)NCc1cccc2c1C(=O)N(C1CCC(=O)NC1=O)C2=O (centres undefined) | 171 to 173 |
